Test results: patent US20220153732A1, “PROTEIN SECRETION INHIBITORS” (KEZAR LIFE SCIENCES, priority 2019, published 2022)
pEC50, pIC50: −log10 of the molar value. Read-outs that look alike come from different tables or passages of the source.

Experiments:
Assay type in all cases: cell-based
[1] = test system: TNFα-FL/Gaussia Luciferase; test: Dox Induced TNFα-FL-Gluc Assay; settings: 293FRT/TO cells, read-out: 24 hr Dox Inducible TNFaFLGluc 293FRT/TO: Mean IC50
Method in brief: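 Compounds were added in doxycycline-containing DMSO/media to cells plated the previous day and incubated at 37° C under 5% CO2. These cells stably express a TNFα-FL/Gaussia luciferase cDNA whose expression is under T-REx (Dox-inducible) control, selected with Hygromycin and Blasticidin.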

[2] = test system: HER3-ss+4aa/Gaussia Luciferase; test: Dox-Induced Her3-ss-Gluc Assay; settings: 293FRT/TO cells, read-out: 24 hr Dox Inducible Her3(ss + 4)Gluc 293FRT/TO: Mean IC50
Method in brief: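 Compounds, diluted in DMSO/media containing doxycycline, were incubated at 37° C., 5% CO2 with cells seeded one day earlier. The cells stably express HER3-ss+4aa/Gaussia luciferase under T-REx control. Where no stereochemistry is shown, data refer to the mixture of stereoisomers.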

[3] = test system: PD1-ss+10aa/Gaussia Luciferase; test: Dox-Induced PD1-ss-Gluc Assay; settings: 293FRT/TO cells, read-out: 24 hr Dox Inducible PD1ssGluc 293FRT/TO: Mean IC50
Method in brief: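 Compounds, diluted in DMSO/media with doxycycline, were added to cells plated a day earlier and kept at 37° C under 5% CO2. The cells stably express a Gaussia luciferase construct fused to PD1-ss+10aa, induced via the T-REx system. Unassigned stereochemistry means mixture data.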

[4] = test system: IL-2-FL/Gaussia Luciferase; test: Dox Induced IL2-FL-Gluc Assay; settings: 293FRT/TO cells, read-out: 24 hr Dox Inducible IL2FLGIuc 293FRT/TO: Mean IC50
Method in brief: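 Compounds were added together with doxycycline in DMSO/media and incubated at 37° C., 5% CO2. The cells were a stably selected line carrying IL-2-FL/Gaussia luciferase under T-REx inducible control. Structures drawn without stereochemistry were tested as stereoisomer mixtures.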

[5] = test system: human multiple myeloma cell line NCI-H929; test: H929 Cell Viability Assay; settings: read-out: 48 hr H929 Viability Celltiter-Glo: Mean EC50
Procedure: Plates were incubated at 37° C., 5% CO2 for 48 hours. After 48 hours, Celltiter-Glo® (Promega) was added to each well and luciferase signal was quantified using Tecan Infinite M1000 Pro for cell viability determination.
For chemical structures that include one or more stereoisomers, but are illustrated without indicating stereochemistry, the assay data refers to a mixture of stereoisomers.

[6] = test system: human multiple myeloma cell line U266B1; test: U266 Cell Viability Assay; settings: read-out: 48 hr U266 Viability Celltiter-Glo: Mean EC50
Method in brief: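 Viability measured by CellTiter-Glo luciferase signal after 48 h compound exposure (37 °C, 5% CO2) of U266B1 cells in 384-well format. Where stereochemistry is not shown, data refer to the stereoisomer mixture.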

[7] = 24 hr doxycycline induction, Gaussia luciferase signal
[8] = 48 hr, NCI-H929 cells, Celltiter-Glo
[9] = U-266, 48 hr, U266B1 cells, Celltiter-Glo

| SMILES | pIC50 [1, 7] | pIC50 [2, 7] | pIC50 [3, 7] | pIC50 [4, 7] | pEC50 [5, 8] | pEC50 [6, 9] | pEC50 ([5]; NCI-H929, 48 h) | pEC50 ([6]; U-266, 48 h) | pIC50 ([1]; 24 hr, doxycycline-induced) | pIC50 ([2]; 24 hr, doxycycline-induced) | pIC50 ([3]; 24 hr, doxycycline-induced) | pIC50 ([4]; 24 hr, doxycycline-induced) |
| --- | --- | --- | --- | --- | --- | --- | --- | --- | --- | --- | --- | --- |
| CN(C)C(=O)c1ccc(/C=C/c2csc(NC(=O)c3cccn3Cc3ccncc3)n2)cc1 [Compound A246] | < 4.60 | 4.66 | 6.28 | < 4.60 | 4.85 | 4.99 |  |  |  |  |  |  |
| CC(C)OC(C)(C)c1csc(NC(=O)C2CCCC(=O)N2Cc2ccncc2)n1 (stereo not drawn) [Compound A102, N-(4-(2-isopropoxypropan-2-yl)thiazol-2-yl)-6-oxo-1-(pyridin-4-ylmethyl)piperidine-2-carboxamide] | < 4.60 | < 4.60 | < 4.60 | < 4.60 | < 4.60 | < 4.60 |  |  |  |  |  |  |
| CC1(C)CCc2sc(NC(=O)c3cccn3Cc3ccncc3)nc21 [Compound A22, N-(4,4-dimethyl-5,6-dihydro-4H-cyclopenta[d]thiazol-2-yl)-1-(pyridin-4-ylmethyl)-1H-pyrrole-2-carboxamide] | 5.05 | 6.30 | 6.57 | 6.34 | < 4.60 | < 4.60 |  |  |  |  |  |  |
| O=C(Nc1nc2ccccc2s1)c1cccn1Cc1ccncc1 [Compound A50, N-(benzo[d]thiazol-2-yl)-1-(pyridin-4-ylmethyl)-1H-pyrrole-2-carboxamide] | < 4.60 | 5.53 | 5.89 | 5.84 | < 4.60 | < 4.60 |  |  |  |  |  |  |
| O=C(Nc1nc(C2=CCN(Cc3ccccc3)CC2)cs1)c1cccn1Cc1ccncc1 [Compound A259] | < 4.60 | 5.15 | 6.29 | 4.98 |  |  | < 4.60 | < 4.60 |  |  |  |  |
| CN(C(=O)c1cccn1Cc1ccncc1)c1nccs1 [Compound B13] |  |  |  |  | < 4.60 | < 4.60 |  |  | < 4.60 | < 4.60 | < 4.60 | < 4.60 |
| Cc1ccc(C(=O)Nc2nc(C(C)(C)OC(C)C)cs2)n1Cc1ccncc1 [Compound A76, N-(4-(2-isopropoxypropan-2-yl)thiazol-2-yl)-5-methyl-1-(pyridin-4-ylmethyl)-1H-pyrrole-2-carboxamide] | < 4.60 | 4.90 | 5.56 | 5.40 | < 4.60 | < 4.60 |  |  |  |  |  |  |
| CC(C)OC(C)(C)c1csc(NC(=O)c2cccn2Cc2ccncc2NCc2ccccc2)n1 [Compound A212, 1-((3-(benzylamino)pyridin-4-yl)methyl)-N-(4-(2-isopropoxypropan-2-yl)thiazol-2-yl)-1H-pyrrole-2-carboxamide] | < 4.60 | 5.38 | 5.32 | 5.34 | 5.52 | 5.43 |  |  |  |  |  |  |
| O=C(Nc1nc([C@H]2CCN2c2ccccc2)cs1)c1cccn1Cc1ccncc1 [Compound A336] |  |  |  |  | 4.75 | < 4.60 |  |  | 5.87 | 6.08 | 6.43 | 6.48 |
| O=C(Nc1nc([C@@H]2CCCN2C(=O)c2ccccc2)cs1)c1cccn1Cc1ccncc1 [Compound A313] |  |  |  |  | < 4.60 | < 4.60 |  |  | < 4.60 | 5.10 | 5.41 | 5.20 |
| Cc1sc(NC(=O)c2cccn2Cc2ccncc2)nc1C(C)C [Compound A38] | 4.83 | 5.92 | 6.15 | 5.85 | < 4.60 | < 4.60 |  |  |  |  |  |  |
| CC(C)Cc1cnc(NC(=O)c2cccn2Cc2ccncc2)s1 [Compound A57] | < 4.60 | 5.38 | 5.85 | 5.31 | < 4.60 | < 4.60 |  |  |  |  |  |  |
| Cc1sc(NC(=O)c2cccn2Cc2ccncc2)nc1C1CC1 [Compound A47] | 4.60 | 5.66 | 5.96 | 5.51 | < 4.60 | < 4.60 |  |  |  |  |  |  |
| O=C(Nc1nc(N2CCCCC2)cs1)c1cccn1Cc1ccncc1 [Compound A264] | < 4.60 | < 4.60 | < 4.60 | < 4.60 | < 4.60 | < 4.60 |  |  |  |  |  |  |
| CC(C)OC(C)(C)c1csc(NC(=O)c2ccnn2Cc2ccncc2)n1 [Compound A112, N-(4-(2-isopropoxypropan-2-yl)thiazol-2-yl)-1-(pyridin-4-ylmethyl)-1H-pyrazole-5-carboxamide] | < 4.60 | < 4.60 | < 4.60 | < 4.60 | < 4.60 | < 4.60 |  |  |  |  |  |  |
| CCc1cnccc1Cn1cccc1C(=O)Nc1nc(C(C)(C)OC(C)C)cs1 [Compound A250, 1-((3-ethylpyridin-4-yl)methyl)-N-(4-(2-isopropoxypropan-2-yl)thiazol-2-yl)-1H-pyrrole-2-carboxamide] | < 4.60 | 4.81 | 5.28 | 5.13 | < 4.60 | < 4.60 |  |  |  |  |  |  |
| O=C(Nc1nc([C@H]2CC[C@H]2c2ccccc2)cs1)c1cccn1Cc1ccncc1 [Compound A324] |  |  |  |  | 4.95 | < 4.60 |  |  | 5.52 | 6.24 | 6.54 | 6.32 |
| O=C(Nc1nc(C2CCN(c3ccccc3)CC2)cs1)c1cccn1Cc1ccncc1 [Compound A282] | 5.33 | 6.06 | 6.49 | 5.82 | 5.15 | 4.90 |  |  |  |  |  |  |
| O=C(Nc1nc(/C=C/c2ccc(N3CCCCC3)cc2)cs1)c1cccn1Cc1ccncc1 [Compound A233] | 5.65 | 6.52 | 7.25 | 6.20 | 5.24 | < 4.60 |  |  |  |  |  |  |
| CC(C)(C)[C@H]1C[C@@H]1NC(=O)c1cccn1Cc1ccncc1 [Compound B23, N-((1S,2R)-2-(tert-butyl)cyclopropyl)-1-(pyridin-4-ylmethyl)-1H-pyrrole-2-carboxamide] |  |  |  |  | < 4.60 | < 4.60 |  |  | < 4.60 | < 4.60 | < 4.60 | < 4.60 |
| O=C(Nc1nc(CCc2ccccc2)cs1)c1cccn1Cc1ccncc1 [Compound A13, N-(4-phenethylthiazol-2-yl)-1-(pyridin-4-ylmethyl)-1H-pyrrole-2-carboxamide] | 5.48 | 6.42 | 6.83 | 6.19 | 4.73 | < 4.60 |  |  |  |  |  |  |
| Cc1ccc(S(=O)(=O)CCOC(C)(C)c2csc(NC(=O)c3cccn3Cc3ccncc3)n2)cc1 [Compound B3, 1-(pyridin-4-ylmethyl)-N-(4-(2-(2-tosylethoxy)propan-2-yl)thiazol-2-yl)-1H-pyrrole-2-carboxamide] |  |  |  |  | < 4.60 | < 4.60 |  |  | < 4.60 | 5.37 | 5.55 | 5.53 |
| O=C(Nc1nc([C@H]2CCN(Cc3ccccc3)C2)cs1)c1cccn1Cc1ccncc1 [Compound A279] | < 4.60 | 5.38 | 5.95 | 5.30 | < 4.60 | < 4.60 |  |  |  |  |  |  |
